Source: patent publication US7776913B2, “Carnitines for treating or preventing disorders caused by andropause” (Sigma-Tau Industrie Farmaceutiche Riunite S.p.A., priority 2002, dated 2010)

Assays:
[1] = tested on: Patients aged over 60 years with lowered blood concentrations of free and total testosterone; test: Prostate volume by suprapubic ultrasonography (three diameters rule); details: mean ± SD
Text: (§1) Reported here below is a clinical trial conducted in order to evaluate the activity of the combination according to the association in the treatment of the symptoms of male ageing.
(§2) Patients aged over 60 years with lowered blood concentrations of free and total testosterone (The Aging Male 4: 151-162, 2001) and complaining of symptoms figuring in the working definition of andropause proposed by the International Society for the Study of the Aging Male (I.S.S.A.M.) (The Aging Male 4: 151-162, 2001): reduced libido or sex drive and erectile function, depressed mood, difficulty concentrating, irritability and fatigue.
(§3) The above-mentioned compounds were presented to the patients in anonymous containers and administered for 6 months.
(§4) Medical history-taking and physical examinations were done for all patients. The following data were also collected prior to the start of treatment, after 1, 3 and 6 months of treatment: • 1. Total blood prostate-specific antigen (PSA) (ng/ml) as measured with the automatic test and monoclonal antibodies [Rigatti P., Scattoni V.: PSA: Antigene prostatico specifico. Edizioni Medico Scientifiche (EDIMES) Pavia, 1997]. • 2. Prostate volume (cm^3) as measured by suprapubic ultrasonography and calculated by means of the three diameters rule [Rigatti P. Scattoni V.: PSA: Antigene prostatico specifico. […] Peak systolic volume (PSV) (cm/sec), end-diastolic velocity (EDV) (cm/sec), and Resistance Index (RI) (%) of the penile arteries (right and left cavernous e dorsal) as measured by means of penile basal and dynamic colour Doppler ultrasonography. RI was calculated as follows: (PSV-EDV/EDV)×100 (Urology 1997: 49: 822-830). • 4. […] A score was calculated for each patient. • 7. Depression was quantified by means of the Hamilton Depression Scale questionnaire (DMS III) (Cancer 94: 2481-2489, 2002). A score was calculated for each patient. • 8. The subjective sensation of fatigue was calculated using the fatigue scale (Lison L.: Statistica applicata alla biologia sperimentale. Milano: Casa Editrice Ambrosiana, 1972). A score was calculated for each patient. • 9. […]

[2] = tested on: Patients aged over 60 years with lowered blood concentrations of free and total testosterone; test: Fatigue scale; format: in vivo, human; details: for Fatigue scale score: mean ± SD
Text: as §1, §2, §3
(§5) Medical history-taking and physical examinations were done for all patients. The following data were also collected prior to the start of treatment, after 1, 3 and 6 months of treatment: • 1. Total blood prostate-specific antigen (PSA) (ng/ml) as measured with the automatic test and monoclonal antibodies [Rigatti P., Scattoni V.: PSA: Antigene prostatico specifico. Edizioni Medico Scientifiche (EDIMES) Pavia, 1997]. • 2. Prostate volume (cm^3) as measured by suprapubic ultrasonography and calculated by means of the three diameters rule [Rigatti P. Scattoni V.: PSA: Antigene prostatico specifico. Edizioni Medico Scientifiche (EDIMES) Pavia, 1997]. • 3. Peak systolic volume (PSV) (cm/sec), end-diastolic velocity (EDV) (cm/sec), and Resistance Index (RI) (%) of the penile arteries (right and left cavernous e dorsal) as measured by means of penile basal and dynamic colour Doppler ultrasonography. RI was calculated as follows: (PSV-EDV/EDV)×100 (Urology 1997: 49: 822-830). • 4. Duration of full erections (in minutes) in the course of a recording period of three nights performed with Rigiscan. […] Free and total blood testosterone, LH and prolactin levels (The Aging Male 4: 151-162, 2001). • 6. Sexual function was checked by means of semistructured interviews and administration of the International Index of Erectile Function (IIEF-15) (Urology 1997: 49: 822-830). A score was calculated for each patient. • 7. Depression was quantified by means of the Hamilton Depression Scale questionnaire (DMS III) (Cancer 94: 2481-2489, 2002). A score was calculated for each patient. • 8. The subjective sensation of fatigue was calculated using the fatigue scale (Lison L.: Statistica applicata alla biologia sperimentale. Milano: Casa Editrice Ambrosiana, 1972). A score was calculated for each patient. • 9. Side effects.
(§6) Blood concentrations of PSA, free and total testosterone, prolactin LH, prostate volume, PSV, EDV, RI, full erection duration, IIEF-15, DMS III, and fatigue scale scores were compared between and within groups by means of factorial analysis of variance for randomised blocks (1 patient=1 block). Comparison of the mean values was done on the raw data with the exclusion of RI which used data subjected to angular transformation (sin^−1 √P/100) for the comparisons. Side effects were compared using the chi-square etst (Lison L.: Statistica applicata alla biologia sperimentale. Milano: Casa Editrice Ambrosiana, 1972).

[3] = tested on: Patients aged over 60 years with lowered blood concentrations of free and total testosterone; test: Penile dynamic colour Doppler ultrasonography (PSV, EDV, RI of cavernous arteries); format: in vivo, human; details: mean ± SD
Text: as §1, §2, §3, §5, §6

[4] = tested on: Patients aged over 60 years with lowered blood concentrations of free and total testosterone; test: Clinical trial overall: andropause symptoms and pathological changes of the cervico-urethral district; format: in vivo, human; details: unlike placebo
Text: as §1
Patients aged over 60 years with lowered blood concentrations of free and total testosterone (The Aging Male 4: 151-162, 2001) and complaining of symptoms figuring in the working definition of andropause proposed by the International Society for the Study of the Aging Male (I.S.S.A.M.) (The Aging Male 4: 151-162, 2001): reduced libido or sex drive and erectile function, depressed mood, difficulty concentrating, irritability and fatigue. […]
Medical history-taking and physical examinations were done for all patients. […] Total blood prostate-specific antigen (PSA) (ng/ml) as measured with the automatic test and monoclonal antibodies [Rigatti P., Scattoni V.: PSA: Antigene prostatico specifico. […] Prostate volume (cm^3) as measured by suprapubic ultrasonography and calculated by means of the three diameters rule [Rigatti P. Scattoni V.: PSA: Antigene prostatico specifico. […] Peak systolic volume (PSV) (cm/sec), end-diastolic velocity (EDV) (cm/sec), and Resistance Index (RI) (%) of the penile arteries (right and left cavernous e dorsal) as measured by means of penile basal and dynamic colour Doppler ultrasonography. RI was calculated as follows: (PSV-EDV/EDV)×100 (Urology 1997: 49: 822-830). • 4. […]

[5] = tested on: Patients aged over 60 years with lowered blood concentrations of free and total testosterone; test: Blood levels of total testosterone; format: in vivo, human; details: for Total testosterone: blood, mean ± SD
Text: as §1, §2, §3
as §5, with “effects. […]” for “effects.”

[6] = tested on: Patients aged over 60 years with lowered blood concentrations of free and total testosterone; test: Hamilton Depression Scale questionnaire (DMS III); format: in vivo, human; details: for Hamilton Depression Scale questionnaire (DMS III) score: mean ± SD
Text: as §1, §2, §3, §5, §6

[7] = tested on: Patients aged over 60 years with lowered blood concentrations of free and total testosterone; test: Blood levels of LH; format: in vivo, human; details: for LH: blood, mean ± SD
Text: as §1, §2, §3, §5, §6

[8] = tested on: Patients aged over 60 years with lowered blood concentrations of free and total testosterone; test: Duration of full nocturnal erections, three nights by Rigiscan; format: in vivo, human; details: for Duration of full erections: three nights by Rigiscan, mean ± SD
Text: as §1, §2, §3
as §5, with “effects. […]” for “effects.”

[9] = tested on: Patients aged over 60 years with lowered blood concentrations of free and total testosterone; test: International Index of Erectile Function questionnaire (IIEF-15); format: in vivo, human; details: for IIEF-15 Erectile Function section score / IIEF-15 General Satisfaction section score (Table 18 title) / IIEF-15 Intercourse Satisfaction section score / IIEF-15 Orgasmic Function section score (Table 17 title) / IIEF-15 Sexual Desire section score: mean ± SD
Text: as §1, §2, §3, §5, §6

[10] = tested on: Patients aged over 60 years with lowered blood concentrations of free and total testosterone; test: Blood levels of free testosterone; format: in vivo, human; details: mean ± SD
Text: as §1, §2, §3, §4

[11] = tested on: patients in the andropause; details: 40×2 mg/day; cited from earlier work
[12] = tested on: Patients aged over 60 years with lowered blood concentrations of free and total testosterone; test: Blood prolactin levels; format: in vivo, human; parameters: unit not given here; details: mean ± SD
Text: as §1, §2, §3, §4

[13] = tested on: Patients aged over 60 years with lowered blood concentrations of free and total testosterone; test: Total blood prostate-specific antigen (PSA) in the clinical trial; details: for PSA: mean ± SD, 15 patients
Text: as §1, §2, §3
as §5, with “effects. […]” for “effects.”

## testosterone undecaonate
[1]; 3 months of therapy
  Prostate volume: 15.5 ± 3.0 cm^3
[1]; 6 months of therapy
  Prostate volume: 15.5 ± 2.6 cm^3
[1]; before therapy
  Prostate volume: 15.3 ± 2.8 cm^3
[2]; 3 months of therapy
  Fatigue scale score: 1.1 ± 1.0
[2]; 6 months of therapy
  Fatigue scale score: 0.6 ± 0.4
[2]; at 3 months, F=33.6, P<0.01
  Change in fatigue scale score (in words): statistically significant increase
[2]; at 6 months, F=5.9, P=n.s.
  Change in fatigue scale score (in words): no significant increase
[2]; before therapy
  Fatigue scale score: 2.8 ± 1.3
[2]; conclusion from Table 20
  Activity in increasing the sensation of general well-being, comparison: significantly more active than placebo
[3]; 3 months of therapy
  Left cavernous PSV: 32.6 ± 4.2 cm/sec
  Left cavernous artery EDV: 7.5 ± 3.3 cm/s
  Right cavernous artery EDV: 7.9 ± 3.6 cm/s
  Right cavernous artery PSV: 32.8 ± 4.2 cm/sec
[3]; 6 months of therapy
  Left cavernous PSV: 33.5 ± 3.5 cm/sec
  Left cavernous artery EDV: 7.4 ± 3.3 cm/s
  Right cavernous artery EDV: 7.9 ± 3.6 cm/s
  Right cavernous artery PSV: 33.7 ± 3.7 cm/sec
[3]; before therapy
  Left cavernous PSV: 33.6 ± 3.7 cm/sec
  Left cavernous artery EDV: 7.7 ± 3.5 cm/s
  Right cavernous artery EDV: 7.8 ± 3.6 cm/s
  Right cavernous artery PSV: 33.2 ± 3.9 cm/sec
[4]
  Effect on the symptoms of andropause: capable of attenuating
[5]; at either 3 or 6 months
  Change in total serum testosterone (in words): no significant increases
[5]; 3 months of therapy
  Total testosterone: 15.5 ± 3.9 nmol/L
[5]; 6 months of therapy
  Total testosterone: 15.8 ± 2.6 nmol/L
[5]; before therapy
  Total testosterone: 14.5 ± 2.1 nmol/L
[6]; 3 months of therapy
  Hamilton Depression Scale questionnaire (DMS III) score: 5.8 ± 0.7
[6]; 6 months of therapy
  Hamilton Depression Scale questionnaire (DMS III) score: 5.1 ± 1.3
[6]; at 3 months, F=4.07, P<0.05
  Change in DMS III scores (in words): significant decrease
[6]; at 6 months, F=2.5, P=n.s.
  Significant decrease in DMS III scores (in words): but not at 6 months
[6]; at 6 months, comparison with placebo (and testosterone)
  DMS III score compared between groups: No significant difference
[6]; before therapy
  Hamilton Depression Scale questionnaire (DMS III) score: 6.6 ± 1.0
[7]; at 3 months, F=229 P<0.01
  Change in blood levels of LH (in words): statistically significant reduction
[7]; at 6 months
  Change in blood levels of LH (in words): significant reduction
[7]; 3 months of therapy
  LH: 4.3 ± 0.6 IU/l
[7]; 6 months of therapy
  LH: 4.2 ± 1.2 IU/l
[7]; before therapy
  LH: 8.9 ± 0.6 IU/l
[8]; 3 months of therapy
  Duration of full erections: 112.7 ± 21.1 min
[8]; 6 months of therapy
  Duration of full erections: 119.6 ± 26.0 min
[8]; at 6 months
  Change in duration of full nocturnal erections (in words): significant increase
[8]; before therapy
  Duration of full erections: 108.3 ± 18.7 min
[9]; 3 months of therapy
  IIEF-15 Erectile Function section score: 16.7 ± 3.7
  IIEF-15 General Satisfaction section score (Table 18 title): 3.7 ± 1.1
  IIEF-15 Intercourse Satisfaction section score: 4.8 ± 0.8
  IIEF-15 Orgasmic Function section score (Table 17 title): 3.9 ± 0.9
  IIEF-15 Sexual Desire section score: 5.7 ± 0.8
[9]; 6 months of therapy
  IIEF-15 Erectile Function section score: 20.2 ± 5.3
  IIEF-15 General Satisfaction section score (Table 18 title): 4.4 ± 2.2
  IIEF-15 Intercourse Satisfaction section score: 5.8 ± 1.9
  IIEF-15 Orgasmic Function section score (Table 17 title): 4.7 ± 1.8
  IIEF-15 Sexual Desire section score: 7.1 ± 0.9
[9]; IIEF-15, Table 15
  Intercourse satisfaction (in words): significantly increased
[9]; IIEF-15, Table 16
  Sexual desire (in words): significantly increased
[9]; at 3 months, F=12.6, P<0.01
  Change in IIEF-15 Orgasmic Function scores (Table 18): significantly increased
[9]; before therapy
  IIEF-15 Erectile Function section score: 13.8 ± 2.7
  IIEF-15 General Satisfaction section score (Table 18 title): 3.2 ± 0.6
  IIEF-15 Intercourse Satisfaction section score: 4.1 ± 0.8
  IIEF-15 Orgasmic Function section score (Table 17 title): 3.2 ± 1.2
  IIEF-15 Sexual Desire section score: 4.3 ± 1.0
[9]; both at 3 months and 6 months
  Change in IIEF-15 Erectile Function scores (in words): significant increase
[9]; conclusion from Table 14
  Erectile activity (in words): significantly increase
[9]; time not stated
  Change in IIEF-15 General Satisfaction scores (text on Table 17): failed to induce any significant changes
[10]; 3 months of therapy
  Free blood testosterone: 19.5 ± 4.2 pg/mL
[10]; 6 months of therapy
  Free blood testosterone: 19.7 ± 4.0 pg/mL
[10]; before therapy
  Free blood testosterone: 4.4 ± 0.8 pg/mL
[11]
  Benefit in patients in the andropause: fair amount of benefit
[12]; 3 months of therapy
  Prolactin: 7.4 ± 1.7
[12]; 6 months of therapy
  Prolactin: 7.3 ± 1.8
[12]; before therapy
  Prolactin: 7.7 ± 1.6
[13]; 3 months of therapy
  PSA: 2.01 ± 0.79 ng/mL
[13]; 6 months of therapy
  PSA: 2.02 ± 0.85 ng/mL
[13]; before therapy
  PSA: 2.02 ± 0.74 ng/mL
[13]; during and after therapy vs before
  Change in blood PSA levels (in words): did not significantly increase
